What was measured:
[1] = molecular target: T1, α3 subtype containing GABA-A receptors (Homo sapiens, UniProt P18507+P34903); assay: Two-electrode voltage clamp electrophysiology in Xenopus oocytes, potentiation of GABA EC20 response, α3; type: cell-based; conditions: 100 nM compound; for activation at 0.1 µM: read-out: Percentage of potentiation alpha3
T1 construct: expressed in transfected cells; host or cells: Xenopus laevis oocytes, cRNA injected
Description: (§1) Electrophysiology protocol: Oocytes were prepared from adult female Xenopus laevis frogs. cRNA encoding human α1, α2, α3, α5, β3 and γ2L GABAA receptor subunits was injected into the cytoplasm of stage 5 or 6 oocytes using the Robocyte Robot (Multi Channel Systems, Reutlingen, Germany). Two-electrode voltage clamp recordings were made in 96-well plates using the Robocyte Robot. Oocytes were impaled using recording heads with two glass electrodes containing 1.5 M potassium acetate and 0.5 M KCl and held at a membrane potential of −80 mV. Oocytes were continually perfused with a ND96 solution (96 mM NaCl, 2 mM KCl, 0.1 mM CaCl2, and 5 mM HEPES, pH 7.5) using a Gilson 222 XL Liquid Handler and Gilson Minipuls 3 Peristaltic Pump (Gilson Medical Electronics, Middleton, Wis., USA). The protocol consisted of three 20-s applications of GABA that gave a 20% of the maximum response (EC20: 60 μM) to allow for headroom to determine a baseline GABA response. To assess the potentiation, oocytes were first exposed to a single 1 μM chlordiazepoxide (CDP) as a potentiation standard. Oocytes with insufficient expression levels (currents below threshold) or insufficient γ2L subunit incorporation (judged by rapid desensitization upon GABA application, or by insufficient potentiation by CDP) were not included in analysis. Following this control application, a given oocyte was exposed to test compounds at 100 nM concentrations. Only one concentration of one compound was tested per oocyte. […] One skilled in the art will recognize that subtypes contribute to the effects of GABA-A modulators. Such that compounds favoring different subtypes can have different therapeutic effects. The magnitude of modulation, for example, partial modulators can influence the effects in vivo. “++” indicates a greater modulation that “+” so that at any given subtype “++” inducates a greater amount of modulation for that subtype. In some embodiments, modulation favoring alpha 1 relative to alpha2 and/or alpha 3 can have sedative hypnotic effects. In other embodiments, compounds with reduced selectivity of alpha 1 can express anxiolytic effects with less sedation. Compounds with selectivity for alpha 5 can have memory/cognition enhancing effects.

[2] = molecular target: T2, α2 subtype containing GABA-A receptors (Homo sapiens, UniProt P18507+P47869); assay: Two-electrode voltage clamp electrophysiology in Xenopus oocytes, potentiation of GABA EC20 response, α2; type: cell-based; conditions: 100 nM compound; for activation at 0.1 µM: read-out: Percentage of potentiation alpha2
T2 construct: expressed in transfected cells; host or cells: Xenopus laevis oocytes, cRNA injected
T2 sequence (P47869 29-451): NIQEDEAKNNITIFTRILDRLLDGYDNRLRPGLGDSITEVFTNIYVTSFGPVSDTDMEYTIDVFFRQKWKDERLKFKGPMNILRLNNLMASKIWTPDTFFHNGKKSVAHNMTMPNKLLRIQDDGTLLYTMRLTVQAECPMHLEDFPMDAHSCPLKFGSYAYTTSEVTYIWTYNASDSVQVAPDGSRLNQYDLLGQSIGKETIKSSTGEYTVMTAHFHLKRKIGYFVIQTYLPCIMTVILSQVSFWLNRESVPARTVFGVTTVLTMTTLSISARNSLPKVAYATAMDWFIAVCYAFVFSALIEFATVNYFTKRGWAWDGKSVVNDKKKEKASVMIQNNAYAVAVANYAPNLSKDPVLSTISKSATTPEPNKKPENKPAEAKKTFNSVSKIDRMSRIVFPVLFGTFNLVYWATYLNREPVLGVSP
T2 sequence (P28472 26-473 partner): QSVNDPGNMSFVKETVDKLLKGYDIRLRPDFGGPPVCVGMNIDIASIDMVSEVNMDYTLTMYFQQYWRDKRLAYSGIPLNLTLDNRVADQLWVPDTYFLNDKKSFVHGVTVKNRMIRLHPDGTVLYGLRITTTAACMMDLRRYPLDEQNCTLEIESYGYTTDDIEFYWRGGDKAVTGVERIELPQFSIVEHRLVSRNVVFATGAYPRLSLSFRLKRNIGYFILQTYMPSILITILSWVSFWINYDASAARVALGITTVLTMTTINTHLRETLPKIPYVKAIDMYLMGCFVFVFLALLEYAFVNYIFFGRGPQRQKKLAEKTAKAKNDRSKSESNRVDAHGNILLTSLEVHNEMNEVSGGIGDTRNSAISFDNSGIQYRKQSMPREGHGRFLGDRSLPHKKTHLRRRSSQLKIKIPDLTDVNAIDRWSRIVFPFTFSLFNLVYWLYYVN
T2 sequence (P18507 40-475): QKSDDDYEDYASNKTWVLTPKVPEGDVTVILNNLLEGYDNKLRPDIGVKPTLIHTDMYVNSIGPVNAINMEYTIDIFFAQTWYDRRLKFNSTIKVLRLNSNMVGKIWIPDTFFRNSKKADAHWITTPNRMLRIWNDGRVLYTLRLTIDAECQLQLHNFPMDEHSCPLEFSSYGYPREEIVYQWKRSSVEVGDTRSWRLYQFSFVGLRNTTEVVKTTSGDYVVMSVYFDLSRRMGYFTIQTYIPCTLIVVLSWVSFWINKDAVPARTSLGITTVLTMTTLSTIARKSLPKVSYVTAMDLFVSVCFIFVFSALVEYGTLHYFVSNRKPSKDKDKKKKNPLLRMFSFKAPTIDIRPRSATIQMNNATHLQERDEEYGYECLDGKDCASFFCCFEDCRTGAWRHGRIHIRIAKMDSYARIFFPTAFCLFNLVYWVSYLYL
Procedure, shortened: (§2)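 TEVC, oocytes expressing human αx/β3/γ2L GABA-A; Vh −80 mV; ND96 pH 7.5 perfusion. 3 × 20-s GABA EC20 (60 μM) baseline → 1 μM CDP standard → compound 100 nM. Low-current or poorly γ2L-incorporating oocytes excluded.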

[3] = molecular target: T3, α5 subtype containing GABA-A receptors (Homo sapiens, UniProt P18507+P31644); assay: Two-electrode voltage clamp electrophysiology in Xenopus oocytes, potentiation of GABA EC20 response, α5; type: cell-based; conditions: 100 nM compound; for activation at 0.1 µM: read-out: Percentage of potentiation alpha5
T3 construct: expressed in transfected cells; host or cells: Xenopus laevis oocytes, cRNA injected
T3 sequence (P31644 32-462): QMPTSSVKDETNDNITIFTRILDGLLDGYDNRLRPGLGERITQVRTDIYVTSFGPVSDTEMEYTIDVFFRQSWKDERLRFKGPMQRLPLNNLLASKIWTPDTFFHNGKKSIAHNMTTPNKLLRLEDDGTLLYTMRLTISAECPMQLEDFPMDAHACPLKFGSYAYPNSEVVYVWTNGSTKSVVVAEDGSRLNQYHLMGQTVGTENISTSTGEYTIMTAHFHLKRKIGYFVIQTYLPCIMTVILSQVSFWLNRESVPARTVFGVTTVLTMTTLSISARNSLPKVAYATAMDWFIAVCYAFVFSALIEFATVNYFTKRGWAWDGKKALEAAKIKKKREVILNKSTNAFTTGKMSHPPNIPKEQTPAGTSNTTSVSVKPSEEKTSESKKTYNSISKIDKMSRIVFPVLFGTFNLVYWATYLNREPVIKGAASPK
T3 sequence (P28472 26-473 partner): as the sequence (P28472 26-473 partner) above
T3 sequence (P18507 40-475): as the sequence (P18507 40-475) above
Description: as §1

[4] = test system: central benzodiazepine receptors; assay: Central benzodiazepine receptor binding (test of Speth et al.); conditions: 1000 nM of the compound
Procedure, shortened: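 Values are percent inhibition of central benzodiazepine receptor binding at 1000 nM compound (initial single-point screen at 1.0E-09, 1.0E-07 and 1.0E-05 M). Speth et al. binding test; nonspecific binding defined with excess unlabelled ligand and subtracted from total.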

[5] = molecular target: T4, α1 subtype containing GABA-A receptors (Homo sapiens, UniProt P14867+P18507); assay: Two-electrode voltage clamp electrophysiology in Xenopus oocytes, potentiation of GABA EC20 response, α1; type: cell-based; conditions: 100 nM compound; for activation at 0.1 µM: read-out: Percentage of potentiation alpha1
T4 construct: expressed in transfected cells; host or cells: Xenopus laevis oocytes, cRNA injected
T4 sequence (P14867 28-456): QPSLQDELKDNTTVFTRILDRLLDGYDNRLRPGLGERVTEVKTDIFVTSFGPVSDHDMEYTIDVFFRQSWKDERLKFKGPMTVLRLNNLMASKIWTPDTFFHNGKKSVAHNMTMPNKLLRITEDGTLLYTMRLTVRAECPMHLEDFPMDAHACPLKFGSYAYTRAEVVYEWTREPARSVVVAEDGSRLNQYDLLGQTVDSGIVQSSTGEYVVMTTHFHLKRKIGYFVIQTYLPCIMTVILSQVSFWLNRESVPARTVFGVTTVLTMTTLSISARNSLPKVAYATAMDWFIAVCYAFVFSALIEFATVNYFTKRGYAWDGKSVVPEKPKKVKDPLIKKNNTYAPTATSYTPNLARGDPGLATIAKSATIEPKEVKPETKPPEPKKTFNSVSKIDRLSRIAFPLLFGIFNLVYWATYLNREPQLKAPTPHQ
T4 sequence (P28472 26-473 partner): as the sequence (P28472 26-473 partner) above
T4 sequence (P18507 40-475): as the sequence (P18507 40-475) above
Procedure, shortened: as §2

T1 sequence (P34903 29-492): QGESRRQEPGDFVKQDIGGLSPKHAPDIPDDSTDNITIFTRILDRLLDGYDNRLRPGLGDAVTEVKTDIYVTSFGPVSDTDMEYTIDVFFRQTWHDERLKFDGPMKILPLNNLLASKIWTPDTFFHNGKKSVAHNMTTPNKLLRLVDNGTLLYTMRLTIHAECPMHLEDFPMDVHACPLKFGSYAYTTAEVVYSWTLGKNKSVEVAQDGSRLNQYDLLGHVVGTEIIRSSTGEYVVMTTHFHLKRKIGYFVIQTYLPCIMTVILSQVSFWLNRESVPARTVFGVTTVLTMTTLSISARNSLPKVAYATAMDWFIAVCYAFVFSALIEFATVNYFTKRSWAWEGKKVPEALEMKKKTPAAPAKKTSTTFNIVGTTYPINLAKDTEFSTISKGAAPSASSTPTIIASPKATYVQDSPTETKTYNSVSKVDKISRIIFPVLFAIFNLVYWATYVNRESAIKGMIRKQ
T1 sequence (P28472 26-473 partner): as the sequence (P28472 26-473 partner) above
T1 sequence (P18507 40-475): as the sequence (P18507 40-475) above

Structure (SMILES) | activation at 0.1 µM [1] | activation at 0.1 µM [2] | activation at 0.1 µM [3] | % Inhibition at 1000 nM for CBZD [4] | activation at 0.1 µM [5] | Percentage of potentiation alpha3 [1] | Percentage of potentiation alpha2 [2] | Percentage of potentiation alpha5 [3] | Percentage of potentiation alpha1 [5]
Cc1ccc(-c2nc3ccc(C)cn3c2CNc2ncccn2)cc1 [Compound 139, N-((6-methyl-2-p-tolylH-imidazo[1,2-a]pyridin-3-yl)methyl)pyrimidin-2-amine] | -10 to 10% | 10 to 50% | -10 to 10% | ++ (percentage of inhibition of central BZD site binding is greater than 80% in the presence of 1000 nM of the compound) | 10 to 50% | – | – | – | –
Cc1ccnc(NCc2c(-c3ccccc3)nc3ccc(Cl)cn23)n1 [Compound 158, (6-Chloro-2-phenyl-imidazo[1,2-a]pyridin-3-ylmethyl)-(4-methyl-pyrimidin-2-yl)-amine] | 10 to 50% | 10 to 50% | -10 to 10% | ++ (percentage of inhibition of central BZD site binding is greater than 80% in the presence of 1000 nM of the compound) | -10 to 10% | – | – | – | –
Clc1ccc(-c2nc3ccccn3c2Cn2nccn2)cc1 [Compound 39, 2-(4-Chloro-phenyl)-3-[1,2,3]triazol-2-ylmethyl-imidazo[1,2-a]pyridine] | 10 to 50% | 10 to 50% | -10 to 10% | ++ (percentage of inhibition of central BZD site binding is greater than 80% in the presence of 1000 nM of the compound) | 10 to 50% | – | – | – | –
CNC(=O)c1nc(Cc2c(-c3ccc(F)cc3)nc3ccc(F)cn23)no1 [Compound 220, 3-((2-(4-fluorophenyl)-6-fluoroimidazo[1,2-a]pyridin-3-yl)methyl)-1,2,4-oxadiazole-5-N-methyl-carboxamide] | – | – | – | – | – | 0 (percentage of potentiation is between about 10% to about −10%) | + (percentage of potentiation is greater than or equal to 10% but less than 50% in the presence of 100 nM of the compound) | 0 (percentage of potentiation is between about 10% to about −10%) | 0 (percentage of potentiation is between about 10% to about −10%)
CC(C)OC(=O)c1ncnn1Cc1c(-c2ccc(Cl)cc2)nc2ccc(Cl)cn12 [Compound 23, 2-[6-Chloro-2-(4-chloro-phenyl)-imidazo[1,2-a]pyridin-3-ylmethyl]-2H-[1,2,4]triazole-3-carboxylic acid isopropyl ester] | 10 to 50% | 10 to 50% | -10 to 10% | ++ (percentage of inhibition of central BZD site binding is greater than 80% in the presence of 1000 nM of the compound) | 10 to 50% | – | – | – | –
Clc1ccc(-c2nc3ccccn3c2Cc2nnc(-c3ccccn3)[nH]2)cc1 [Compound 230, 2-(4-chlorophenyl)-3-((5-(pyridin-2-yl)-4H-1,2,4-triazol-3-yl)methyl)imidazo[1,2-a]pyridine] | 10 to 50% | 10 to 50% | 10 to 50% | ++ (percentage of inhibition of central BZD site binding is greater than 80% in the presence of 1000 nM of the compound) | 10 to 50% | – | – | – | –
Cc1nnc(Cc2c(-c3ccccc3)nc3ccc(Cl)cn23)o1 [Compound 205, 2-((6-chloro-2-phenylimidazo[1,2-a]pyridin-3-yl)methyl)-5-methyl-1,3,4-oxadiazole] | -10 to 10% | -10 to 10% | -10 to 10% | ++ (percentage of inhibition of central BZD site binding is greater than 80% in the presence of 1000 nM of the compound) | -10 to 10% | – | – | – | –
CNc1ccn(Cc2c(-c3ccc(Cl)cc3)nc3ccccn23)c(=O)n1 [Compound 133, 1-((2-(4-chlorophenyl)imidazo[1,2-a]pyridin-3-yl)methyl)-4-(methylamino)pyrimidin-2(1H)-one] | -10 to 10% | ≥ 50% | -10 to 10% | ++ (percentage of inhibition of central BZD site binding is greater than 80% in the presence of 1000 nM of the compound) | 10 to 50% | – | – | – | –
O=c1cc(Cl)n(Cc2c(-c3ccc(Cl)cc3)nc3ccccn23)c(=O)[nH]1 [Compound 128, 6-chloro-1-((2-(4-chlorophenyl)imidazo[1,2-a]pyridin-3-yl)methyl)pyrimidine-2,4(1H,3H)-dione] | -10 to 10% | 10 to 50% | 10 to 50% | ++ (percentage of inhibition of central BZD site binding is greater than 80% in the presence of 1000 nM of the compound) | -10 to 10% | – | – | – | –
COC(=O)c1ncnn1Cc1c(-c2ccc(Cl)cc2)nc2ccc(Cl)cn12 [Compound 21, Methyl 2-((6-chloro-2-(4-chlorophenyl)H-imidazo[1,2-a]pyridin-3-yl)methyl)-2H-1,2,4-triazole-3-carboxylate] | – | – | – | ++ (percentage of inhibition of central BZD site binding is greater than 80% in the presence of 1000 nM of the compound) | – | + (percentage of potentiation is greater than or equal to 10% but less than 50% in the presence of 100 nM of the compound) | + (percentage of potentiation is greater than or equal to 10% but less than 50% in the presence of 100 nM of the compound) | 0 (percentage of potentiation is between about 10% to about −10%) | + (percentage of potentiation is greater than or equal to 10% but less than 50% in the presence of 100 nM of the compound)
CN(C)CCNC1=CC(=O)N(Cc2c(-c3ccc(Br)cc3)nc3ccccn23)C1 [Compound 242, 1-((2-(4-bromophenyl)imidazo[1,2-a]pyridin-3-yl)methyl)-4-(2-(dimethylamino)ethylamino)-1H-pyrrol-2(5H)-one] | -10 to 10% | 10 to 50% | – | ++ (percentage of inhibition of central BZD site binding is greater than 80% in the presence of 1000 nM of the compound) | 10 to 50% | – | – | – | –
Fc1ccc(-c2nc3ccc(F)cn3c2Cn2ccnn2)cc1 [Compound 61, 3-((1H-1,2,3-triazol-1-yl)methyl)-6-fluoro-2-(4-fluorophenyl)H-imidazo[1,2-a]pyridine] | – | – | – | ++ (percentage of inhibition of central BZD site binding is greater than 80% in the presence of 1000 nM of the compound) | – | ++ (percentage of potentiation is greater than or equal to 50% in the presence of 100 nM of the compound) | + (percentage of potentiation is greater than or equal to 10% but less than 50% in the presence of 100 nM of the compound) | – | + (percentage of potentiation is greater than or equal to 10% but less than 50% in the presence of 100 nM of the compound)
NNC(=O)c1nc(Cc2c(-c3ccc(Cl)cc3)nc3ccc(F)cn23)no1 [Compound 216, 3-((2-(4-chlorophenyl)-6-fluoroimidazo[1,2-a]pyridin-3-yl)methyl)-1,2,4-oxadiazole-5-carbohydrazide] | 10 to 50% | ≥ 50% | -10 to 10% | – | 10 to 50% | – | – | – | –
COC1=CC(=O)N(Cc2c(-c3ccc(Cl)cc3)nc3ccc(Cl)cn23)C1 [Compound 114, 1-((6-chloro-2-(4-chlorophenyl)H-imidazo[1,2-a]pyridin-3-yl)methyl)-4-methoxy-1H-pyrrol-2(5H)-one] | – | – | – | – | – | + (percentage of potentiation is greater than or equal to 10% but less than 50% in the presence of 100 nM of the compound) | + (percentage of potentiation is greater than or equal to 10% but less than 50% in the presence of 100 nM of the compound) | 0 (percentage of potentiation is between about 10% to about −10%) | ++ (percentage of potentiation is greater than or equal to 50% in the presence of 100 nM of the compound)
